Reference: patent US11464745B2, “Solid pharmaceutical dosage formulations and processes” (UCL Business PLC, priority 2016, dated 2022)

Assays:
[1] = FDM printing; cited from earlier work
[2] = Determination of drug loading by HPLC (drug degradation during SLS printing); format: physicochemical; conditions: SLS 3D printing, 445 nm 2.3 W laser
Procedure: Tablets weighing approx. 300 mg, prepared as in example 1, were placed in a volumetric flask with deionized water (1 L) under magnetic stirring until complete dissolution.
Samples of the solutions were then filtered through 0.45 μm filters (Millipore Ltd, Ireland) and the concentration of drug determined with high performance liquid chromatograph (HPLC). We used a Hewlett Packard 1050 Series HPLC system, Agilent Technologies, UK. The validated high performance liquid chromatographic assay entailed injecting 20 μL samples for analysis using a mobile phase, consisting of gradient system of (A) water adjusted to pH 2 with orthophosphoric acid and (B) acetonitrile, through a Luna 5 μm C18 column, 150×4.6 mm (Phenomenex, UK) maintained at 40° C. The mobile phase was pumped at a flow rate of 1 mL/min under the following gradient program: 0-15 min, 5-20% B; 15-16 min, 20-5% B.
HPLC drug loading studies have been performed. […] (Goyanes et al. 3D printing of modified-release aminosalicylate (4-ASA and 5-ASA) tablets. Eur. J. Pharm. Biopharm. 89, 157-162).

Nc1ccc(C(=O)O)c(O)c1 [4-ASA]
drug degradation while printing [1]: degrade | drug degradation during the printing process (HPLC) [2]: No degradation
